Patent US20190022104A1 (priority 2016, published 2019)
Values joined by “and” are separate entries in the source; they are usually repeats but may differ in a detail not shown here. Equal entries are not always repeated. “Also recorded” adds a separate entry of the source. Where two headings read alike, the source gives them in different places.

Assays:
[1] = test system: mouse sepsis model (LPS 75 mg/kg); experiment: Effects of different doses of pirenzepine in LPS mouse sepsis model; conditions: 0.3-1.2 mg/kg i.p.; no statistically significant difference between dose groups
Experimental: After 30 minutes, LPS (75 mg/kg) was injected intraperitoneally to produce a mouse sepsis model.

[2] = test system: liver tissue of rats with sepsis shock; experiment: Pathological change in liver tissue under microscope, rats with sepsis shock; assay type: in vivo; conditions: compared with the endotoxin group
Experimental: (§1) The model of septic shock in mice was induced by intraperitoneal injection of a toxic dose of 75 mg/kg endotoxin. […] The model of sepsis shock in mice was induced by intraperitoneal injection of a total lethal dose of 150 mg/kg endotoxin. […] Mice injected intraperitoneally with placebo in place of endotoxin were used as a normal control group.

[3] = cited from earlier work
[4] = test system: gastric and duodenal ulcers; conditions: patients; cited from earlier work
[5] = test system: mice with sepsis shock induced by 75 mg/kg endotoxin; experiment: Survival of mice with sepsis shock induced by 75 mg/kg endotoxin; assay type: in vivo; conditions: for number of mice survived / number of mice died: 10 mice per group; for number of mice survived: endotoxin group 4 survived; for number of mice died: endotoxin group 6 died; for survival rate of mice: sepsis shock induced by 75 mg/kg endotoxin i.p., 10 animals per group, endotoxin group 40%, normal control 100%
Experimental: as §1
The model of sepsis shock in mice was induced with 75 mg/kg endotoxin.

[6] = cited from earlier work; remark: listed apart in the source
[7] = test system: lung tissue of rats with sepsis shock; experiment: Pathological change in lung tissue under microscope, rats with sepsis shock; assay type: in vivo; conditions: compared with the endotoxin group
TNF-α in serum = experiment: Serum TNF-α concentration in rats with endotoxin-induced sepsis shock; assay type: in vivo
[8] = test system: mice with sepsis shock induced by 150 mg/kg endotoxin; experiment: Survival time of mice with sepsis shock induced by 150 mg/kg endotoxin; assay type: in vivo; conditions: for average survival time of mice: 150 mg/kg endotoxin i.p. (total lethal dose), endotoxin group 29.15±6.84 hours, p<0.05 vs endotoxin group
Experimental: as §1
The septic shock in mice was induced with 150 mg/kg endotoxin and the survival curves were plotted according to the survival time of mice in each group.

[9] = 0 min after sepsis shock was reached, endotoxin group 641.05±24.75, normal control 159.36±50.40
[10] = 30 min after sepsis shock was reached, endotoxin group 677.95±47.05, normal control 223.41±27.42
[11] = 90 min after sepsis shock was reached, endotoxin group 716.11±24.41, normal control 166.86±28.80

SMILES	pathological changes of the liver tissue under microscope [2]	number of mice survived ([5]; 75 mg/kg endotoxin)	number of mice died ([5]; 75 mg/kg endotoxin)	survival rate of mice [5] [%]	pathological changes of the lung tissue under microscope [7]	concentration of TNF-α in serum of rats (TNF-α in serum; [9])	concentration of TNF-α in serum of rats (TNF-α in serum; [10])	concentration of TNF-α in serum of rats (TNF-α in serum; [11])	average survival time of mice [8] [h]	further results
CN1CCN(CC(=O)N2c3ccccc3C(=O)Nc3cccnc32)CC1 [pirenzepine, 11-[(4-methylpiperazin-1-yl)acetyl]-5,11-dihydro-6H-pyrido[2,3-b][1,4]benzodiazepin-6-one]	the lesions were all relieved; also recorded: the lesions were reduced	8	2	80	congestion, exudation, and necrosis were significantly reduced; also recorded: the exudation was significantly reduced, and edema and inflammation in the alveolar septum were reduced	378.12±17.87 pg/mL and 378.12 ± 17.87^a pg/mL	418.19±22.75 pg/mL and 418.19 ± 22.75^c pg/mL	446.35±33.04 pg/mL and 446.35 ± 33.04^e pg/mL	44.6 ± 11.96	effect of low-dose pretreatment on survival time of mice with sepsis [1]: can prolong the survival time; solubility ([3]; in anhydrous ethanol): very easily soluble; solubility ([3]; in formic acid): soluble; solubility ([3]; in methanol): insoluble; solubility ([3]; in water): soluble; healing rate of the ulcer [4]: 70%-94%; effect on mortality of mice with sepsis ([5]; 75 mg/kg endotoxin, FIG. 1): significantly reduced the mortality; plasma protein binding rate ([6]; in vivo): about 10%; plasma t½ ([6]; in vivo): 10 to 12 h; tmax ([6]; oral): 2 to 3 h; absolute bioavailability ([6]; oral, printed spread (±4,6%)): about 26%; serum TNF-α concentrations compared with the endotoxin-untreated group (TNF-α in serum; rats, at 0, 30, 90 and 150 minutes, p<0.05): significantly lower; effect on mortality of mice with sepsis ([8]; 150 mg/kg endotoxin, FIG. 2): significantly reduced the mortality
CCN(CC)CC1CCCCN1CC(=O)N1c2ccccc2C(=O)Nc2cccnc21 (centres unmarked) [AF-DX116, 11-[[2-[(Diethylamino)methyl]-1-piperidinyl]acetyl]-5,11-dihydro-6H-pyrido[2,3-b][1,4]benzodi azepin-6-one]	cell necrosis was more serious; also recorded: cell necrosis was more severe	1	9	10	the destruction of the tissue was aggravated; also recorded: pathological changes were aggravated	706.19 ± 6.00 pg/mL	757.48 ± 51.40 pg/mL	857.21 ± 74.14 pg/mL	16.02 ± 2.06	concentration of TNF-α in serum of rats (TNF-α in serum; 150 min after sepsis shock was reached, endotoxin group 737.00±16.38, normal control 161.47±9.75): 932.22 ± 17.25 pg/mL
CN1[C@@H]2CC[C@H]1C[C@@H](OC(=O)C(CO)c1ccccc1)C2 (some centres unmarked) [atropine]	the lesions were all relieved; also recorded: the edema and necrosis of hepatocytes were all reduced	7	–	70	congestion, exudation, and necrosis were significantly reduced; also recorded: the exudation was significantly reduced, and alveolar septum widening was reduced	–	–	598.54±48.85 pg/mL and 598.54 ± 48.85^f pg/mL	37.15 ± 9.27	–
